Results reported in US20060212961A1, “Rice transposon gene” (priority 2003, published 2006).

How the values were obtained:
pyl-stb seeds = assay: Azacytidine treatment of pyl-stb seeds, appearance of mutable (pyl-v) individuals; format: in vivo, rice; conditions: for Germination rate (%) / Mutable individual (%) / Individual with mutable or abnormal phenotype / Mutable individual / Normal individual: seeds macerated 24 hrs at 30° C.; for Individual with mutable or abnormal phenotype / Mutable individual / Normal individual: number of individuals
Description: pyl-stb seeds were macerated in 0.15, 0.3 or 0.45 mM azacytidine aqueous solution for 24 hrs at 30° C., washed them, left for germination and examined the expression of pyl-v.

indica rice (93-11) = assay: Azacytidine treatment of indica rice (93-11), release of nDart; format: in vivo; conditions: 93-11 treated with azacytidine; no release under usual growth conditions
Description: Furthermore, indica rice (93-11) was treated with azacytidine and confirmed release of nDart.

Q: For `Nc1ncn([C@@H]2O[C@H](CO)[C@@H](O)[C@H]2O)c(=O)n1` [azaC, 5-azacytidine], which “Frequency of the transposition of nDart” value (pyl-stb seeds; 0.15, 0.3 or 0.45 mM azacytidine aqueous solution, 24 hrs at 30° C.) is on record?
A: increased as the concentration of azacytidine increased

Q: And the “Germination rate (%)” value (pyl-stb seeds; azaC 0.15 mM)?
A: 99%

Q: And the “Mutable individual (%)” value (pyl-stb seeds; azaC 0.15 mM)?
A: 60.6%

Q: And the “Individual with mutable or abnormal phenotype” value (pyl-stb seeds; azaC 0.15 mM)?
A: 17

Q: What about the Mutable individual (pyl-stb seeds; azaC 0.15 mM) of the same compound?
A: 43

Q: And the Normal individual (pyl-stb seeds; azaC 0.15 mM)?
A: 39

Q: What about the “Germination rate (%)” value (pyl-stb seeds; azaC 0.3 mM) of the same compound?
A: 92%

Q: What about the “Mutable individual (%)” value (pyl-stb seeds; azaC 0.3 mM) of the same compound?
A: 69.6%

Q: What about the “Individual with mutable or abnormal phenotype” value (pyl-stb seeds; azaC 0.3 mM) of the same compound?
A: 27

Q: And the Mutable individual (pyl-stb seeds; azaC 0.3 mM)?
A: 37

Q: What about the Normal individual (pyl-stb seeds; azaC 0.3 mM) of the same compound?
A: 28

Q: What about the “Germination rate (%)” value (pyl-stb seeds; azaC 0.45 mM) of the same compound?
A: 95%

Q: What about the “Mutable individual (%)” value (pyl-stb seeds; azaC 0.45 mM) of the same compound?
A: 73.7%

Q: What about the “Individual with mutable or abnormal phenotype” value (pyl-stb seeds; azaC 0.45 mM) of the same compound?
A: 36

Q: And the Mutable individual (pyl-stb seeds; azaC 0.45 mM)?
A: 34

Q: What about the Normal individual (pyl-stb seeds; azaC 0.45 mM) of the same compound?
A: 25

Q: What about the “Change of pyl-stb to a pyl-v mutant” value (pyl-stb seeds; azacytidine treatment of pyl-stb seeds) of the same compound?
A: able to be changed to a pyl-v mutant

Q: What about the “Release of nDart” value (indica rice (93-11)) of the same compound?
A: release was confirmed
